The results in this text go back to patent US11040981B2, “Pyrrolotriazine compounds and methods of inhibiting TAM kinases” (Syros Pharmaceuticals, Inc., priority 2017, dated 2021).

Structures can show the parent of a compound that is named as a salt.

What all share (format): biochemical
One test concerns the target T1, AXL (Homo sapiens, UniProt P30530).
T1 sequence (P30530 26-894): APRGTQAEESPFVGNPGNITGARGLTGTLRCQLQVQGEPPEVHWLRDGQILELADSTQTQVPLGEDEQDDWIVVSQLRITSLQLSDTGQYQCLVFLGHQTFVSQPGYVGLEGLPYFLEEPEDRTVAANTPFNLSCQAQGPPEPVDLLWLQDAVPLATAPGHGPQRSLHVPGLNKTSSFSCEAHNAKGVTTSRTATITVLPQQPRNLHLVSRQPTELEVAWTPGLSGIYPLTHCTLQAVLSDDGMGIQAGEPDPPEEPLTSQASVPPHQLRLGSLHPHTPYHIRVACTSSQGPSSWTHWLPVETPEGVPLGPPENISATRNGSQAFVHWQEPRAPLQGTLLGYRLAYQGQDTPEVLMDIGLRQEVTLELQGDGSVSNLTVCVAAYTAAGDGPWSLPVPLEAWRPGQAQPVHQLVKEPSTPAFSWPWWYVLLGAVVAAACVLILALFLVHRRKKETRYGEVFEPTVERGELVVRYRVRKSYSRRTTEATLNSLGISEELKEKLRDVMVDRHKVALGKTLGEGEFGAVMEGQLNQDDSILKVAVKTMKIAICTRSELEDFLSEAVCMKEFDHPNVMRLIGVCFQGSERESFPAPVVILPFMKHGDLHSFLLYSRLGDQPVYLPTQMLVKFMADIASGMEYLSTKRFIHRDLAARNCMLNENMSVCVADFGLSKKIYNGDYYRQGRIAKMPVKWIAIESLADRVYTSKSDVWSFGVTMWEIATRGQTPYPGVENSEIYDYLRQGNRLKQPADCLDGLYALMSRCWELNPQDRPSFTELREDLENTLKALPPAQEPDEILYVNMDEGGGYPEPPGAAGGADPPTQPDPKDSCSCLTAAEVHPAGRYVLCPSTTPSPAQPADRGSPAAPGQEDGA
Nature of the test: TR-FRET kinase activity assay, AXL. The following applies: ATP at Km, 60 minutes. As for the experimental part:
(§1) IC50 values for compound inhibition of AXL, FLT3, MERTK and TYRO3 activity were determined by using a TR-FRET activity assay. A polypeptide substrate with a fluorescent label is phosphorylated on a tyrosine by each enzyme, where the now phosphorylated product is bound by a Europium-labeled antibody specific to that phosphorylation site. The proximity between the antibody and the substrate gives a signal known as TR-FRET. As the enzyme is inhibited by compound, less phosphorylated peptide product is made causing a decrease in overall signal.
(§2) Activity assays were performed in a 384-well, small volume, black microplates in an active enzyme volume of 10 μL and final developed volume of 20 μL. Final assay conditions are 50 mM HEPES pH 7.5, 10 mM MgCl2, 1 mM EGTA, 0.01% Brij 35 and 1 mM DTT all at RT. Enzyme, substrate labeled peptide and compound are mixed, and then the reaction is initiated with the addition of ATP at Km concentration for each enzyme. The reaction is allowed to run 60 minutes and then quenched with a 12.5 mM EDTA (ethylenediamine tetraacetic acid) solution. The plate is then developed with the addition of Europium labeled antibody for a final volume of 20 μL and is then incubated for 30 minutes in darkness. Plates are read in a Pherastar plate reader. Data is analyzed in GraphPad PRISM.
(§3) The results of these assays are shown in Table 1, below, wherein “No.” designates compound number (FIG. 1); “A” represents a value of ≤100 nM; “B” a value of >100 nM and ≤1 μM; “C” a value of >1 μM and ≤10 μM; “D” a value of >10 μM; “ND” is not determined. The ratio of Mer to FLT3 is calculated as follows: FLT3 IC50/Mer IC50. “+” represents a ratio of >2.0 and <10; “++” represents a ratio of between 10 and 100; and “+++” represents a ratio of >100.

The next test deals with T2, FLT3 (Homo sapiens, UniProt P36888).
T2 sequence (P36888 27-993): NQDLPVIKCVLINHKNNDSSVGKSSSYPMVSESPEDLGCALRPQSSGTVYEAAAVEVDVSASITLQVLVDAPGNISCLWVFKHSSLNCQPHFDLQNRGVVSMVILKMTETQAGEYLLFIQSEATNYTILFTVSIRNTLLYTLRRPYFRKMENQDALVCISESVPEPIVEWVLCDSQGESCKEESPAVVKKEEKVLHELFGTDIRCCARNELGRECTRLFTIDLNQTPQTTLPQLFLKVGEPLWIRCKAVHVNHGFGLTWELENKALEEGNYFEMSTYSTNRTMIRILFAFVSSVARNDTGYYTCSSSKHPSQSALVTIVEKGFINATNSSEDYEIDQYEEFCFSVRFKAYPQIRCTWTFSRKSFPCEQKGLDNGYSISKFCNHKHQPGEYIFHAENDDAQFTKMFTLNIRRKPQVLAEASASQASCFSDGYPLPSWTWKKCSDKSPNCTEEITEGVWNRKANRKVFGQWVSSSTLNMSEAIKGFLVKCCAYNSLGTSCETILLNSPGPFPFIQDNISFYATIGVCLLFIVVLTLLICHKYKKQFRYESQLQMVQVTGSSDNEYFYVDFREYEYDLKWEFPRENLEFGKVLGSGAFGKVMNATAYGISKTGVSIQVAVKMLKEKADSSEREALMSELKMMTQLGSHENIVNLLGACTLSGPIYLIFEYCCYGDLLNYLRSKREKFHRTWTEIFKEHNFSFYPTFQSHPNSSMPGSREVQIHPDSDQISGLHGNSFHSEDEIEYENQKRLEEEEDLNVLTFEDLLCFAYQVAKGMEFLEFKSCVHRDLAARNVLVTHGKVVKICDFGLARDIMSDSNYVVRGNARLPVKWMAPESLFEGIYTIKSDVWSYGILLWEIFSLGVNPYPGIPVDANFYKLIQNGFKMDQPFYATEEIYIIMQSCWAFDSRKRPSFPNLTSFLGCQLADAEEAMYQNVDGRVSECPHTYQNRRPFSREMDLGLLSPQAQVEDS
Nature of the test: TR-FRET kinase activity assay, FLT3. The following applies: ATP at Km, 60 minutes. As to the method:
as §1, §2, §3

For the next test, the target named is T3, MERTK (Homo sapiens, UniProt Q12866).
T3 sequence (Q12866 21-999): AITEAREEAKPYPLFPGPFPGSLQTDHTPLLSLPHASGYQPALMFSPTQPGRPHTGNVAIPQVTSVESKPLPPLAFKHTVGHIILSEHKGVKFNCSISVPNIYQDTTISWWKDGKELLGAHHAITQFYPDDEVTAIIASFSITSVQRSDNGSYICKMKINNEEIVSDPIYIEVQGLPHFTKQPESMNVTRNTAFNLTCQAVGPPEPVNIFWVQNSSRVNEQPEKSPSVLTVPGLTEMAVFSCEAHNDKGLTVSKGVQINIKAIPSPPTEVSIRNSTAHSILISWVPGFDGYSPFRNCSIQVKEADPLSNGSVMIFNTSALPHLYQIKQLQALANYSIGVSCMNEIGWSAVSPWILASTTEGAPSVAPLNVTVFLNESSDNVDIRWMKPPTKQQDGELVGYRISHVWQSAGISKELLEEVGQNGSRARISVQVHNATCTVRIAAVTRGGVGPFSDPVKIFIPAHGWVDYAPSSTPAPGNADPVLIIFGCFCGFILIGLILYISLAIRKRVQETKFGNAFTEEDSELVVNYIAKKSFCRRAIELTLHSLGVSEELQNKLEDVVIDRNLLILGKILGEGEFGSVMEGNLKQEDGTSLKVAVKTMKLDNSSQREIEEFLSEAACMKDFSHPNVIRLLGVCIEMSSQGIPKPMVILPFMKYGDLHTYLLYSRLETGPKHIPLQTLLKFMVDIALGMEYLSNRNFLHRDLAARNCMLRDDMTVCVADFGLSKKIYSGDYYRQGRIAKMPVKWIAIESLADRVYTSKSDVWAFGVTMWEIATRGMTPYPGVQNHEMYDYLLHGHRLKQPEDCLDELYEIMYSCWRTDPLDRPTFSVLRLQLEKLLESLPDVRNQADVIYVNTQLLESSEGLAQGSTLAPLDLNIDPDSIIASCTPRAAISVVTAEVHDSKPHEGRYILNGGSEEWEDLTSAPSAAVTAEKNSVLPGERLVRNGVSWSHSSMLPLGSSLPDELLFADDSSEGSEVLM
Nature of the test: TR-FRET kinase activity assay, MERTK. The following applies: for IC50: TR-FRET activity assay, ATP at Km, 60 minutes, read-out: Mer IC50; for FLT3/Mer ratio (FLT3 IC50/Mer IC50): ratio of Mer to FLT3: FLT3 IC50/Mer IC50. As for the experimental part: as §1, §2, §3

As to `CCCCNc1ncc2c(-c3ccc(S(=O)(=O)N4CCOCC4)cc3)cc([C@H]3CC[C@H](O)CC3)n2n1` [Compound 101], the 50% inhibitory concentration (IC50) against AXL, against FLT3 and on MERTK was not above 100 nM each time. The “FLT3/Mer ratio (FLT3 IC50/Mer IC50)” value at MERTK was “+ (“+” represents a ratio of >2.0 and <10)”.
Take `CCCCCC(C)Nc1ncc2c(Nc3ccc(F)cc3)cc(C3CCC(O)CC3)n2n1` [Compound 106, (1S,4r)-4-(5-((4-fluorophenyl)amino)-2-((S)-heptan-2-ylamino)pyrrolo[2,1-f][1,2,4]triazin-7-yl)cyclohexanol hydrochloride]: the IC50 was more than 10000 nM at AXL, more than 10000 nM at FLT3 and 100 to 1000 nM at MERTK. On MERTK, the “FLT3/Mer ratio (FLT3 IC50/Mer IC50)” value is “++ (“++” represents a ratio of between 10 and 100)”.
As for `CCCCC[C@H](C)Nc1ncc2c(C(=O)Nc3ccc(F)cc3)cc(C3CCC(O)CC3)n2n1` (stereo partly drawn) [Compound 111, N-(4-fluorophenyl)-7-(4-hydroxycyclohexyl)-2-[[(1S)-1-methylhexyl]amino]pyrrolo[2,1-f][1,2,4]triazine-5-carboxamide], the half-inhibitory concentration (IC50) was more than 10000 nM on AXL, 1000 to 10000 nM against FLT3 and 1000 to 10000 nM on MERTK. Further, on MERTK, the “FLT3/Mer ratio (FLT3 IC50/Mer IC50)” value was “+ (“+” represents a ratio of >2.0 and <10)”.
As for `COC[C@H](C)Nc1ncc2c(-c3cnn(C[C@@H]4CC(=O)N(C)C4)c3)cc([C@H]3CC[C@H](O)CC3)n2n1` [Compound 476], the IC50 is 100 to 1000 nM at FLT3 and not above 100 nM at MERTK.
